In PubChem BioAssay AID330 (DTP/NCI, 2004):
“And” between values parts separate entries of the source, which are not always exact repeats. Equal values may be shown once. Toxic doses and inconclusive results are not listed.

Tested on: P388 leukemia ip, CD2F1 mice, survival T/C
Test: NCI In Vivo Anticancer Drug Screen. Data for tumor model P388 Leukemia (intraperitoneal) in CD2F1 (CDF1) mice
Settings: endpoint: median survival time, higher = longer survival
Method in brief: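 Mice carrying the transplanted tumor received test compound or vehicle. Survival was recorded in each group, and the value is the treated-group measurement divided by that of the vehicle-treated control group.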

[1] = dose: 6.25 mg/kg/injection, schedule: Q01DX009 (ip), vehicle: water
[2] = dose: 12.5 mg/kg/injection, schedule: Q01DX009 (ip), vehicle: water
[3] = dose: 25.0 mg/kg/injection, schedule: Q01DX009 (ip), vehicle: water
[4] = dose: 50.0 mg/kg/injection, schedule: Q01DX009 (ip), vehicle: water

CC(=O)NCC#N
T/C (dose: 100.0 mg/kg/injection, schedule: Q01DX001 (ip), vehicle: saline): 107 % of control | T/C (dose: 200.0 mg/kg/injection, schedule: Q01DX001 (ip), vehicle: saline): 102 % of control | T/C (dose: 400.0 mg/kg/injection, schedule: Q01DX001 (ip), vehicle: saline): 121 % of control

O=[N+]([O-])c1ccc2nc3ccccc3cc2c1
T/C (dose: 50.0 mg/kg/injection, schedule: Q04DX003 (ip), vehicle: saline): 112 % of control | T/C (dose: 100.0 mg/kg/injection, schedule: Q04DX003 (ip), vehicle: saline): 96 % of control | T/C (dose: 200.0 mg/kg/injection, schedule: Q04DX003 (ip), vehicle: saline): 96 % of control | T/C (dose: 400.0 mg/kg/injection, schedule: Q04DX003 (ip), vehicle: saline): 93 % of control

O=C(O)C1CSCN1 (configuration not stated)
T/C [1]: 90 % of control and 96 % of control | T/C [2]: 99 % of control and 96 % of control | T/C [3]: 98 % of control and 99 % of control | T/C [4]: 98 % of control and 95 % of control | T/C (dose: 100.0 mg/kg/injection, schedule: Q01DX009 (ip), vehicle: water): 100 % of control | T/C (dose: 200.0 mg/kg/injection, schedule: Q01DX009 (ip), vehicle: water): 96 % of control

Cc1c[n+]([O-])ccc1Br
T/C [1]: 99 % of control | T/C [2]: 90 % of control | T/C [3]: 100 % of control | T/C [4]: 101 % of control

c1ccc([P+](CCN2Cc3ccccc3C2)(c2ccccc2)c2ccccc2)cc1
T/C (dose: 0.78 mg/kg/injection, schedule: Q01DX009 (ip), vehicle: other): 119 % of control | T/C (dose: 0.78 mg/kg/injection, schedule: Q01DX009 (ip), vehicle: saline): 101 % of control | T/C (dose: 1.56 mg/kg/injection, schedule: Q01DX009 (ip), vehicle: other): 110 % of control | T/C (dose: 1.56 mg/kg/injection, schedule: Q01DX009 (ip), vehicle: saline): 101 % of control | T/C (dose: 3.12 mg/kg/injection, schedule: Q01DX009 (ip), vehicle: saline): 107 % of control | T/C (dose: 3.13 mg/kg/injection, schedule: Q01DX009 (ip), vehicle: other): 114 % of control | T/C (dose: 3.13 mg/kg/injection, schedule: Q01DX009 (ip), vehicle: saline): 105 % of control | T/C (dose: 6.25 mg/kg/injection, schedule: Q01DX009 (ip), vehicle: other): 118 % of control | T/C (dose: 6.25 mg/kg/injection, schedule: Q01DX009 (ip), vehicle: saline): 109 % of control and 119 % of control | T/C (dose: 12.5 mg/kg/injection, schedule: Q01DX009 (ip), vehicle: other): 108 % of control | T/C (dose: 12.5 mg/kg/injection, schedule: Q01DX009 (ip), vehicle: saline): 120 % of control and 122 % of control | T/C (dose: 25.0 mg/kg/injection, schedule: Q01DX009 (ip), vehicle: other): 88 % of control

CCn1c(C)c(COC(=O)NC)c(COC(=O)NC)c1-c1ccc(Cl)c(Cl)c1
T/C (dose: 6.25 mg/kg/injection, schedule: Q01DX009 (ip), vehicle: distilled water + Tween-80): 150 % of control and 152 % of control | T/C (dose: 12.5 mg/kg/injection, schedule: Q01DX009 (ip), vehicle: distilled water + Tween-80): 153 % of control

C/C(=N/O)C1CCC(C2CCCC(C3CCCCC3)C2)CC1 (configuration not stated)
T/C (dose: 50.0 mg/kg/injection, schedule: Q01DX005 (ip), vehicle: saline with Tween-80): 94 % of control | T/C (dose: 100.0 mg/kg/injection, schedule: Q01DX005 (ip), vehicle: saline with Tween-80): 94 % of control | T/C (dose: 200.0 mg/kg/injection, schedule: Q01DX005 (ip), vehicle: saline with Tween-80): 93 % of control

Clc1cccc(NCNC2Nc3ccccc3N2)c1
T/C (dose: 15.0 mg/kg/injection, schedule: Q01DX005 (ip), vehicle: saline with Tween-80): 96 % of control | T/C (dose: 30.0 mg/kg/injection, schedule: Q01DX005 (ip), vehicle: saline with Tween-80): 97 % of control | T/C (dose: 60.0 mg/kg/injection, schedule: Q01DX005 (ip), vehicle: saline with Tween-80): 93 % of control

O=C(OCC(Cl)(Cl)Cl)N1[C@H]2C3=C(CCC3)[C@@H]([C@H]3O[C@H]32)N1C(=O)OCC(Cl)(Cl)Cl
T/C (dose: 50.0 mg/kg/injection, schedule: Q01DX005 (ip), vehicle: Klucel (hydroxypropylcellulose) (HPC)): 97 % of control | T/C (dose: 100.0 mg/kg/injection, schedule: Q01DX005 (ip), vehicle: Klucel (hydroxypropylcellulose) (HPC)): 97 % of control | T/C (dose: 200.0 mg/kg/injection, schedule: Q01DX005 (ip), vehicle: Klucel (hydroxypropylcellulose) (HPC)): 97 % of control

O=c1[nH]nnc2ccccc12
T/C (dose: 50.0 mg/kg/injection, schedule: Q01DX009 (ip), vehicle: Klucel (hydroxypropylcellulose) (HPC)): 105 % of control | T/C (dose: 100.0 mg/kg/injection, schedule: Q01DX009 (ip), vehicle: Klucel (hydroxypropylcellulose) (HPC)): 114 % of control
